# System: Acinetobacter baumannii
# Assay: Antibacterial activity against Acinetobacter baumannii ATCC 17978 after 24 to 48 hrs in presence of iron chelator 2,2'-dipyridyl by CLSI method
# Format: functional
row,MIC,Compound
1,2000 µM,Cc1nonc1NC(=O)CSc1nc2ccccc2[nH]1
2,2000 µM,Cc1nonc1NC(=O)CSc1ccccn1
3,> 4000 µM,Cc1nonc1NC(=O)CSc1ccc2ccccc2c1
4,> 4000 µM,O=C(CCc1ccccc1)Nc1nonc1-c1ccccc1
5,2000 µM,Cc1nonc1NC(=O)COc1ccccc1
6,4000 µM,Cc1nonc1NC(=O)CSc1ncccn1
7,1000 µM,CCCc1nonc1NC(=O)CCc1ccccc1
8,500 µM,Cc1nonc1NC(=O)/C=C/c1ccccc1O
9,1000 µM,Cc1nonc1NC(=O)CCc1ccccc1
10,4000 µM,Cc1ccnc(SCC(=O)Nc2nonc2C)n1
11,> 4000 µM,Cc1nonc1NC(=O)CSc1nc2ccccc2s1
12,> 4000 µM,O=C(COc1ccccc1)Nc1nonc1-c1ccccc1
13,> 4000 µM,Cc1nonc1NC(=O)CN(CC(=O)Nc1nonc1C)c1ccccc1
14,> 4000 µM,O=C(/C=C/c1ccccc1)Nc1nonc1-c1ccccc1
15,1000 µM,Cc1nonc1NC(=O)COc1ccc(Cl)cc1
16,> 4000 µM,Cc1nonc1NC(=O)COc1cccc2ccccc12

row,MIC,Compound
1,2000 µM,CC(=O)Oc1ccccc1/C=C/C(=O)Nc1nonc1C
2,> 4000 µM,Cc1nonc1NC(=O)/C=C/c1ccc(O)c(O)c1
3,1000 µM,Cc1nonc1NC(=O)CSc1ccccc1
4,> 4000 µM,CCCc1nonc1NC(=O)/C=C/c1ccccc1
5,> 4000 µM,O=C(CSc1ccccc1)Nc1nonc1-c1ccccc1
6,> 4000 µM,Cc1nonc1NC(=O)COc1cccc(Cl)c1Cl
7,4000 µM,Cc1nonc1NC(=O)c1ccc2ccccc2c1
8,1000 µM,Cc1nonc1NC(=O)COc1ccc(Cl)c(Cl)c1
9,4000 µM,CC(=O)Oc1ccc(/C=C/C(=O)Nc2nonc2C)cc1OC(C)=O
10,> 4000 µM,Cc1nonc1NC(=O)COc1ccccc1Cl
11,> 4000 µM,O=C(COc1ccccc1Cl)Nc1nonc1-c1ccccc1
12,2000 µM,COc1ccc(CCC(=O)Nc2nonc2C)cc1
13,1000 µM,Cc1nonc1NC(=O)/C=C/c1ccccc1
14,2000 µM,Cc1nonc1NC(=O)CSC1=NCCS1
15,1000 µM,Cc1nonc1NC(=O)c1cccc2ccccc12

# Reference: ChEMBL document CHEMBL4177606, “Synthesis of novel 1,2,5-oxadiazoles and evaluation of action against Acinetobacter baumannii” (2017)
